Measurements taken from patent US4126606A, “Physiologically active peptides and a process for preparation thereof” (Zaidan Hojin Biseibutsu Kagaku Kenkyu Kai, priority 1976, dated 1978).

Assay: ID50 determination of amastatin preparations (inhibitory activity)
Type: biochemical
With N-acetyl amastatin A2 the ID50 was 450 µg/mL. Work on amastatin A1 yielded an ID50 of 0.65 µg/mL. With amastatin A2 the ID50 was 0.54 µg/mL. Work on amastatin A2 dimethyl ester yielded an ID50 of 17 µg/mL. amastatin A3 gave an ID50 of 1.0 µg/mL. In the case of amastatin B2, the ID50 is reported as 1.0 µg/mL. With amastatin RB1 the ID50 was 1.50 µg/mL. “hydrochloric acid salt of amastatin A1 [HCl A1]” gave an ID50 of 0.75 µg/mL.
